Source: patent publication US5886156A, “Synthetic peptide lung surfactants having covalently bonded antioxidants” (Merrell Pharmaceuticals Inc., priority 1996, dated 1999)

Test system: surfactant-deficient lavaged rat lungs
Experiment: Isolated rat lavaged lung model (adult rat lung model), pressure-volume curve
Parameters: species or system rat (male Sprague Dawley)
Details: for PC5 (% TLC): per cent of total lung capacity at 5 cm H2O pressure, deflation limb of P-V curve / PC10 (% TLC): per cent of total lung capacity at 10 cm H2O pressure, deflation limb of P-V curve: peptide-DPPC mixture (or DPPC alone) instilled into lavaged excised rat lungs, 25 mg phospholipid, 100-125 mg/kg, 37° C.; for RESTORATION % (per cent restoration based on PC5 values): relative to surfactant-sufficient (100) and surfactant-deficient (0) lungs, peptide-DPPC mixture or DPPC alone
From the text: Methods of testing the synthetic surfactant preparations for efficacy are well known in the art. For example, the synthetic surfactant preparations of the present invention can be tested in any appropriate manner such as in the adult rat lung model (Ikegami, et al., (1979) Pediatr. Res. 13, 777-780). Pressure-volume characteristics of surfactant-depleted rat lungs are similar to those of lungs of infants with hyaline membrane disease and restoration of the pressure-volume relationship of the lung to normal is related to the amount of surfactant instilled in a dose dependent manner. (Bermel, M. S., et al., […] excised rat lungs as a model of surfactant deficiency, Lung 162: 99-113 (1984)). The experimental procedures for animal preparation, pressure-volume curve registration and lung lavage are adapted from those described by Ikegami et al., Pediatr. Res. 11: 178-182 (1977) and Pediatr. Res. 13: 777-780 (1979, and Bermel et al, Lung 162: 99-113 (1984). Male Sprague Dawley rats (200-250 g) are anesthetized with sodium pentobarbital and exsanguinated. The trachea is cannulated and the thoracic organs are removed en bloc. After removal of the adventitious tissue, the trachea and lungs (~2 g) are suspended in saline (0.9%), placed in a vacuum chamber, and degassed according to the procedure of […] et al. the degassed lungs are suspended in saline in a 37° C., jacketed reservoir and the tracheal cannula is connected both to a water manometer and a glass syringe by a T-tube. The glass syringe is placed in an infusion/withdrawal pump. […] The total volume of air infused is recorded as the total lung capacity (TLC) which is generally 14-15 ml. The lungs are then deflated at a rate of 2.5 ml/min until zero pressure is attained. During deflation, pressure is read from the water manometer at 1 cm intervals and recorded. […] After degassing and equilibration, the lungs are rendered surfactant-deficient by repeated lavage with 5 ml/g lavage buffer (0.9% NaCl, 10 mM HEPES, pH 7.4). […] At this point, the lungs are considered surfactant-deficient. […] The mixture is then vortexed again, degassed if foamy, and 2 ml of the test mixture are introduced into and withdrawn from the lungs four times by syringe. When the test mixture is reintroduced to the lungs for the fifth time, it is allowed to remain in the lungs. This procedure is adopted to encourage even distribution of the material throughout the lung. The lungs are degassed, allowed to equilibrate at 37° C. for 5 min, and a P-V measurement is performed. Lungs are studied while supported in saline at 37° C. as opposed to ambient temperature since the physical characteristics of the surfactants may be dependent upon temperature. […] Data are presented in terms of the % TLC. […] Comparisons are based on per cent restoration=([…] ×100/(PC5 (sufficient) -PC5(deficient)) and made by one-way analysis of variance using the general linear models procedure with specific contrasts of the means (SAS Institute Inc., Cary, N.C.). […] The restoration based upon the PC5 values was used to compare the test mixtures.

Compound | effect on the pressure-volume (P-V) curves of the lavaged lung (DPPC alone, without peptide) | PC5 (% TLC): per cent of total lung capacity at 5 cm H2O pressure, deflation limb of P-V curve [% TLC] | PC10 (% TLC): per cent of total lung capacity at 10 cm H2O pressure, deflation limb of P-V curve [% TLC] | RESTORATION % (per cent restoration based on PC5 values) [%]
CCCCCCCCCCCCCCCC(=O)OC[C@H](COP(=O)([O-])OCC[N+](C)(C)C)OC(=O)CCCCCCCCCCCCCCC [DPPC, L-α-dipalmitoylphosphatidylcholine] | no significant effect | 13 ± 1 | 31 ± 2 | 11 ± 8
HBB-Aoc-Glu-Trp-Ala-Lys-NH2 [SEQ ID NO: 5] |  | 55 ± 4 | 77 ± 2 | 81 ± 7
